{"source": "PubChem BioAssay AID330", "about": "(DTP/NCI, 2004)", "system": "P388 leukemia ip, CD2F1 mice, survival T/C", "experiment": "NCI In Vivo Anticancer Drug Screen. Data for tumor model P388 Leukemia (intraperitoneal) in CD2F1 (CDF1) mice", "details": "endpoint: median survival time, higher = longer survival", "outline": "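Mice carrying the transplanted tumor received test compound or vehicle. Survival was recorded in each group, and the value is the treated-group measurement divided by that of the vehicle-treated control group.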", "key": {"[1]": {"details": "dose: 30.0 mg/kg/injection, schedule: Q01DX005 (ip), vehicle: saline with Tween-80"}, "[2]": {"details": "dose: 60.0 mg/kg/injection, schedule: Q01DX005 (ip), vehicle: saline with Tween-80"}, "[3]": {"details": "dose: 50.0 mg/kg/injection, schedule: Q01DX005 (ip), vehicle: saline with Tween-80"}, "[4]": {"details": "dose: 100.0 mg/kg/injection, schedule: Q01DX005 (ip), vehicle: saline with Tween-80"}, "[5]": {"details": "dose: 15.0 mg/kg/injection, schedule: Q01DX005 (ip), vehicle: saline with Tween-80"}}, "note": "Values joined by “and” are separate entries in the source; they are usually repeats but may differ in a detail not shown here. Identical values can stand only once. Inconclusive results and toxic doses are left out.", "data": [{"smiles": "COC(=O)c1cc(Cl)ccc1NCC(N)c1ccccc1", "note": "(stereo unspecified)", "values": [{"measurement": "T/C", "setting": "[1]", "value": "99 % of control"}, {"measurement": "T/C", "setting": "[2]", "value": "101 % of control and 97 % of control"}]}, {"smiles": "CCn1c(=O)c2[nH]c(Cl)nc2n(C2CC2)c1=O", "values": [{"measurement": "T/C", "setting": "dose: 50.0 mg/kg/injection, schedule: Q01DX009 (ip), vehicle: Klucel (hydroxypropylcellulose) (HPC)", "value": "99 % of control"}, {"measurement": "T/C", "setting": "dose: 100.0 mg/kg/injection, schedule: Q01DX009 (ip), vehicle: Klucel (hydroxypropylcellulose) (HPC)", "value": "101 % of control"}]}, {"smiles": "CC1CC(C)(C)C(c2ccccc2)C(=O)O1", "note": "(stereo unspecified)", "values": [{"measurement": "T/C", "setting": "dose: 100.0 mg/kg/injection, schedule: Q04DX003 (ip), vehicle: Klucel (hydroxypropylcellulose) (HPC)", "value": "106 % of control"}, {"measurement": "T/C", "setting": "dose: 200.0 mg/kg/injection, schedule: Q04DX003 (ip), vehicle: Klucel (hydroxypropylcellulose) (HPC)", "value": "100 % of control"}, {"measurement": "T/C", "setting": "dose: 400.0 mg/kg/injection, schedule: Q04DX003 (ip), vehicle: Klucel (hydroxypropylcellulose) (HPC)", "value": "114 % of control"}]}, {"smiles": "NC(N)=NS(=O)(=O)c1ccc(N=c2c3ccccc3n(-c3ccccc3)c3ccccc23)cc1", "values": [{"measurement": "T/C", "setting": "[3]", "value": "90 % of control"}, {"measurement": "T/C", "setting": "[4]", "value": "87 % of control"}]}, {"smiles": "COc1cccc2c1C(=O)c1c(O)c3c(c(O)c1C2=O)C[C@@](O)(/C(C)=N\\O)C[C@@H]3OC1CC(N)C(O)C(C)O1", "note": "(stereo partly specified)", "values": [{"measurement": "T/C", "setting": "dose: 3.13 mg/kg/injection, schedule: Q01DX009 (ip), vehicle: water", "value": "154 % of control"}, {"measurement": "T/C", "setting": "dose: 6.25 mg/kg/injection, schedule: Q01DX009 (ip), vehicle: water", "value": "165 % of control"}, {"measurement": "T/C", "setting": "dose: 6.25 mg/kg/injection, schedule: Q04DX003 (ip), vehicle: water", "value": "115 % of control and 124 % of control"}, {"measurement": "T/C", "setting": "dose: 12.5 mg/kg/injection, schedule: Q01DX009 (ip), vehicle: water", "value": "183 % of control"}, {"measurement": "T/C", "setting": "dose: 12.5 mg/kg/injection, schedule: Q04DX003 (ip), vehicle: water", "value": "116 % of control and 117 % of control"}, {"measurement": "T/C", "setting": "dose: 25.0 mg/kg/injection, schedule: Q01DX009 (ip), vehicle: water", "value": "100 % of control"}, {"measurement": "T/C", "setting": "dose: 25.0 mg/kg/injection, schedule: Q04DX003 (ip), vehicle: water", "value": "123 % of control"}, {"measurement": "T/C", "setting": "dose: 100.0 mg/kg/injection, schedule: Q04DX003 (ip), vehicle: water", "value": "119 % of control"}, {"measurement": "T/C", "setting": "dose: 200.0 mg/kg/injection, schedule: Q04DX003 (ip), vehicle: water", "value": "101 % of control"}]}, {"smiles": "O=C(Nc1ccccn1)c1ccccc1S(=O)(=O)O", "values": [{"measurement": "T/C", "setting": "[3]", "value": "102 % of control"}, {"measurement": "T/C", "setting": "[4]", "value": "104 % of control"}, {"measurement": "T/C", "setting": "dose: 200.0 mg/kg/injection, schedule: Q01DX005 (ip), vehicle: saline with Tween-80", "value": "99 % of control"}]}, {"smiles": "CC(C)(O)C1C2OC(=O)C1C1(O)CC3OC34C(=O)OC2C14C", "note": "(stereo unspecified)", "values": [{"measurement": "T/C", "setting": "dose: 12.5 mg/kg/injection, schedule: Q01DX009 (ip), vehicle: saline with Tween-80", "value": "100 % of control"}, {"measurement": "T/C", "setting": "dose: 25.0 mg/kg/injection, schedule: Q01DX009 (ip), vehicle: saline with Tween-80", "value": "100 % of control"}, {"measurement": "T/C", "setting": "dose: 33.0 mg/kg/injection, schedule: Q04DX003 (ip), vehicle: saline with Tween-80", "value": "104 % of control"}, {"measurement": "T/C", "setting": "dose: 50.0 mg/kg/injection, schedule: Q01DX009 (ip), vehicle: saline with Tween-80", "value": "100 % of control"}, {"measurement": "T/C", "setting": "dose: 50.0 mg/kg/injection, schedule: Q04DX003 (ip), vehicle: saline with Tween-80", "value": "109 % of control"}]}, {"smiles": "CC(CCN1CCOCC1)Nc1ccnc2cc(Cl)ccc12", "note": "(stereo unspecified)", "values": [{"measurement": "T/C", "setting": "dose: 12.5 mg/kg/injection, schedule: Q01DX005 (ip), vehicle: saline", "value": "98 % of control"}, {"measurement": "T/C", "setting": "dose: 25.0 mg/kg/injection, schedule: Q01DX005 (ip), vehicle: saline", "value": "102 % of control"}, {"measurement": "T/C", "setting": "dose: 50.0 mg/kg/injection, schedule: Q01DX005 (ip), vehicle: saline", "value": "107 % of control and 95 % of control"}]}, {"smiles": "Cc1cc(N/N=C/c2c(C)n(C)n(-c3ccccc3)c2=O)c2cc3c(cc2n1)OCO3", "values": [{"measurement": "T/C", "setting": "dose: 6.25 mg/kg/injection, schedule: Q01DX005 (ip), vehicle: Klucel (hydroxypropylcellulose) (HPC)", "value": "103 % of control"}, {"measurement": "T/C", "setting": "dose: 12.5 mg/kg/injection, schedule: Q01DX005 (ip), vehicle: Klucel (hydroxypropylcellulose) (HPC)", "value": "113 % of control"}, {"measurement": "T/C", "setting": "dose: 25.0 mg/kg/injection, schedule: Q01DX005 (ip), vehicle: Klucel (hydroxypropylcellulose) (HPC)", "value": "108 % of control"}]}, {"smiles": "CN(C)c1ccc(NC2=C(Cl)C(=O)C(Nc3ccc(N(C)C)cc3)=C(Cl)C2=O)cc1", "values": [{"measurement": "T/C", "setting": "dose: 25.0 mg/kg/injection, schedule: Q01DX005 (ip), vehicle: saline with Tween-80", "value": "101 % of control"}, {"measurement": "T/C", "setting": "[3]", "value": "92 % of control"}, {"measurement": "T/C", "setting": "[4]", "value": "88 % of control"}]}, {"smiles": "COc1cc2c(cc1OC)[C@H](c1cc(OC)c3c(c1)OCO3)[C@H]1C(=O)OCC1C2", "note": "(stereo partly specified)", "values": [{"measurement": "T/C", "setting": "[5]", "value": "89 % of control"}, {"measurement": "T/C", "setting": "[1]", "value": "88 % of control"}, {"measurement": "T/C", "setting": "[2]", "value": "90 % of control and 92 % of control"}, {"measurement": "T/C", "setting": "dose: 120.0 mg/kg/injection, schedule: Q01DX005 (ip), vehicle: saline with Tween-80", "value": "98 % of control"}, {"measurement": "T/C", "setting": "dose: 240.0 mg/kg/injection, schedule: Q01DX005 (ip), vehicle: saline with Tween-80", "value": "99 % of control"}]}, {"smiles": "CCOC(=O)N(C)C(=O)NC", "values": [{"measurement": "T/C", "setting": "dose: 50.0 mg/kg/injection, schedule: Q01DX009 (ip), vehicle: saline", "value": "103 % of control and 105 % of control"}, {"measurement": "T/C", "setting": "dose: 100.0 mg/kg/injection, schedule: Q01DX009 (ip), vehicle: saline", "value": "103 % of control and 109 % of control"}, {"measurement": "T/C", "setting": "dose: 200.0 mg/kg/injection, schedule: Q01DX009 (ip), vehicle: saline", "value": "100 % of control and 104 % of control"}]}, {"smiles": "N#CC(=O)Nc1ccc(Cl)cc1", "values": [{"measurement": "T/C", "setting": "dose: 3.75 mg/kg/injection, schedule: Q01DX005 (ip), vehicle: saline with Tween-80", "value": "103 % of control"}, {"measurement": "T/C", "setting": "dose: 7.5 mg/kg/injection, schedule: Q01DX005 (ip), vehicle: saline with Tween-80", "value": "111 % of control"}, {"measurement": "T/C", "setting": "[5]", "value": "109 % of control"}]}]}
